Measured values taken from BindingDB's records for PubMed 32771797 (Southern Medical University, 2020).

Experiment: Inhibition of Severe acute respiratory syndrome coronavirus 2 MPro incubated for 24 hrs by plaque assay

SMILES: O=C[C@H](C[C@@H]1CCNC1=O)NC(=O)[C@H](Cc1cccc(F)c1)NC(=O)c1cc2ccccc2[nH]1 [med.21724, Compound 62]
- EC50: 720 nM
